This is an account of results in patent US20250361230A1, “LATS Inhibitors and Uses Thereof” (The USA, as Represented by the Secretary, Dept. of Heath …, priority 2022, published 2025).

Format in all cases: biochemical
In experiment [1] the target is T1, LATS1 (Homo sapiens, UniProt O95835).
T1 sequence (O95835 1-1130): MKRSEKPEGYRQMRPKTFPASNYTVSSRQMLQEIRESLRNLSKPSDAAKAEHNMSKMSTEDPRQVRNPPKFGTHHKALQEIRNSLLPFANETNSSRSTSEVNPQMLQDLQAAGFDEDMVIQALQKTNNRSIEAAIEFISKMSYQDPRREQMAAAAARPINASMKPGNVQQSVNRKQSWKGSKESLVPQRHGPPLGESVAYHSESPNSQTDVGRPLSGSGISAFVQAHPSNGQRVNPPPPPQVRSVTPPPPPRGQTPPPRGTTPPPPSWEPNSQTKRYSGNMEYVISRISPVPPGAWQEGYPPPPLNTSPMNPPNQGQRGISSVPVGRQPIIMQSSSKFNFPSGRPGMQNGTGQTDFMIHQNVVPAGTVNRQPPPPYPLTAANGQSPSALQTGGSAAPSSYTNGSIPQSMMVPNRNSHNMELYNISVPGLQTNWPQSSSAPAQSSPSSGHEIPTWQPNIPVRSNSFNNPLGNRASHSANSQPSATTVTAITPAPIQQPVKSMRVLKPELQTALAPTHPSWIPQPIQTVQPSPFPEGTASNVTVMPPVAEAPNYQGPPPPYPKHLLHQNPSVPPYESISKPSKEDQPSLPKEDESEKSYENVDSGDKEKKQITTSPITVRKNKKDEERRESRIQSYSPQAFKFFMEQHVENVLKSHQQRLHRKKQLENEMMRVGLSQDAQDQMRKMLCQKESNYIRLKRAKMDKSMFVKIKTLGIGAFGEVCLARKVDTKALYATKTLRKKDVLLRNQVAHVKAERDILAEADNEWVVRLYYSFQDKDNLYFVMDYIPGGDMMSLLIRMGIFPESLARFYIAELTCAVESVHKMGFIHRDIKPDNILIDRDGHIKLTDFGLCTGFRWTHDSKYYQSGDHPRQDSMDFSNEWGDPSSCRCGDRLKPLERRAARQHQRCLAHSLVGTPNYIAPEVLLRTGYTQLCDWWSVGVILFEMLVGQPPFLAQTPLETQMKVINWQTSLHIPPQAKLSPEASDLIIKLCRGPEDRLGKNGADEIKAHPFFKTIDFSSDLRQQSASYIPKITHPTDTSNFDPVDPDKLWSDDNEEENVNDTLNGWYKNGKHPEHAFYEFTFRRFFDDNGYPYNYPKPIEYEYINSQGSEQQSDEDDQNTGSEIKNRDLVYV
The experiment is described as follows: RBC HotSpot kinase assay (33P-ATP, P81 filter-binding), LATS1. Conditions: read-out: LATS1 IC50. An outline of the steps:
(§1)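 Hepes pH 7.5/MgCl2/EGTA/Brij35/BSA/Na3VO4/DTT buffer, cofactors per kinase; cpd acoustically dispensed, 20 min preinc RT; start w/ 33P-ATP, 2 h RT; P81 filter readout; 10-pt singlet IC50.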

The target of experiment [2] is T2, LATS2 (Homo sapiens, UniProt Q9NRM7).
T2 sequence (Q9NRM7 1-1088): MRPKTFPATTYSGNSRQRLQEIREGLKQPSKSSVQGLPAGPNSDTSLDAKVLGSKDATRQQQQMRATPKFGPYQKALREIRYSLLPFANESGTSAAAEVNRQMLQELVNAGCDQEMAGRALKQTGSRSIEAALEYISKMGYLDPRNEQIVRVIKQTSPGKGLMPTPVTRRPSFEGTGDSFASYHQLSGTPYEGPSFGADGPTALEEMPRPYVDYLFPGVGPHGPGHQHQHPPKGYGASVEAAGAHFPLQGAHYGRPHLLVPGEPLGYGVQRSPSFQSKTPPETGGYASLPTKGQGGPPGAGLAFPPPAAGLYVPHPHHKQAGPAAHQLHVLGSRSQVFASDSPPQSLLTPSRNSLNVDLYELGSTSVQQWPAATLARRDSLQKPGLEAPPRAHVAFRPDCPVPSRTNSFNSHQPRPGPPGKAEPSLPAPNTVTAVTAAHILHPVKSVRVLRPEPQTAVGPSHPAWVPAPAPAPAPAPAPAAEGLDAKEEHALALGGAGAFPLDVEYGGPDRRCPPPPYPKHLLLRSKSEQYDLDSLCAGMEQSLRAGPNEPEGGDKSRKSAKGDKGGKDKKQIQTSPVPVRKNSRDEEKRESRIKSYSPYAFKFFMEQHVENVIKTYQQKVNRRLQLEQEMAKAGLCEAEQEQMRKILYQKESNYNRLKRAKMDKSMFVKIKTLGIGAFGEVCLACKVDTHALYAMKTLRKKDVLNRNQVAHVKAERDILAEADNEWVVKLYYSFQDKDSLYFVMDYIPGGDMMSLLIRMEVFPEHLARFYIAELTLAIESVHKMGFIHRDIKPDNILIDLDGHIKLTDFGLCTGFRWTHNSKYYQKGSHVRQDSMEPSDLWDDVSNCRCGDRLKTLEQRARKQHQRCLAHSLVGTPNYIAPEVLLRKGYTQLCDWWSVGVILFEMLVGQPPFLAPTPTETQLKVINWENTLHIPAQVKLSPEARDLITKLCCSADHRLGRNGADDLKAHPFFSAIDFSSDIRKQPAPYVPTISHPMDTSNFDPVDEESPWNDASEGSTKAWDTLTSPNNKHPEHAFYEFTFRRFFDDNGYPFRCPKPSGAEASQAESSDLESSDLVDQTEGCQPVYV
Briefly: RBC HotSpot kinase assay (33P-ATP, P81 filter-binding), LATS2. The settings on record: read-out: LATS2 IC50. The essentials: as §1

The target of experiment [3] is AKT (Homo sapiens, UniProt P31749). The experiment is described as follows: RBC HotSpot kinase assay (33P-ATP, P81 filter-binding), AKT. The settings on record: read-out: AKT IC50. An outline of the steps:
as §1

Where [4] appears, read: Table 32, biochemical kinase assay.

Where two headings read alike, the source gives them in different places.

Sequence of AKT (P31749 whole entry): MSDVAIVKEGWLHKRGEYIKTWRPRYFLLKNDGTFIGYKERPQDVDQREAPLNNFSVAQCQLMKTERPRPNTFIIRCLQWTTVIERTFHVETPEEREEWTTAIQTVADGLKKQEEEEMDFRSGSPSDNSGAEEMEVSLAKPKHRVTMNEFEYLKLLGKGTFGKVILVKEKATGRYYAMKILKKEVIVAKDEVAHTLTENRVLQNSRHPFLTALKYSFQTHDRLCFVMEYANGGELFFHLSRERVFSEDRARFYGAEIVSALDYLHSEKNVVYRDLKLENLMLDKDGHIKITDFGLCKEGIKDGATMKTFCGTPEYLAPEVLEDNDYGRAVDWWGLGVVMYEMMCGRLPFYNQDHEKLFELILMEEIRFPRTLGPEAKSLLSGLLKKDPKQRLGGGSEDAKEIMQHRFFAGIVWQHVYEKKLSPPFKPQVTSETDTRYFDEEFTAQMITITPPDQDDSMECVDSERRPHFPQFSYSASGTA

With `CNCC(=O)NCC(O)(c1ccc(Cl)cc1)c1ccc(-c2ccnc3[nH]ccc23)cc1` (stereo not drawn) [Compound 1027, N-(2-(4-(1H-pyrrolo[2,3-b]pyridin-4-yl)phenyl)-2-(4-chlorophenyl)-2-hydroxyethyl)-2-(methylamino)acetamide], the IC50 (usually the concentration at which inhibition is half-maximal) in experiment [1] (setting [4]) was 4.1 nM; in experiment [2] (setting [4]), 3 nM; in experiment [3] (setting [4]) it was 1.3 nM.

Consider `CC(C)(N)C(=O)NCC(O)(c1ccc(Cl)cc1)c1ccc(-c2ccnc3[nH]ccc23)cc1` (stereo not drawn) [Compound 1028, N-(2-(4-(1H-pyrrolo[2,3-b]pyridin-4-yl)phenyl)-2-(4-chlorophenyl)-2-hydroxyethyl)-2-amino-2-methylpropanamide], for which the results for the IC50 in experiment [1] (setting [4]), in experiment [2] (setting [4]) and in experiment [3] (setting [4]) were 1.9 nM, 2.4 nM and 1.9 nM, respectively.

In the case of `NCC(=O)NCC(O)(c1ccc(Cl)cc1)c1ccc(-c2ccnc3[nH]cc(F)c23)cc1` (stereo not drawn) [Compound 1029, 2-amino-N-(2-(4-chlorophenyl)-2-(4-(3-fluoro-1H-pyrrolo[2,3-b]pyridin-4-yl)phenyl)-2-hydroxyethyl)acetamide], the IC50 was 2.6 nM in experiment [1] (setting [4]), 1.3 nM in experiment [2] (setting [4]) and 0.7 nM in experiment [3] (setting [4]).

With `CN(CC(O)(c1ccc(Cl)cc1)c1ccc(-c2ccnc3[nH]ccc23)cc1)C(=O)CN` (stereo not drawn) [Compound 1030, N-(2-(4-(1H-pyrrolo[2,3-b]pyridin-4-yl)phenyl)-2-(4-chlorophenyl)-2-hydroxyethyl)-2-amino-N-methylacetamide], the results for the IC50 in experiment [1] (setting [4]), in experiment [2] (setting [4]) and in experiment [3] (setting [4]) were 4.4 nM, 5.1 nM and 1.1 nM, respectively.

Regarding `N#Cc1c[nH]c2nccc(-c3ccc(C4(O)CCNCC4)cc3)c12` [Compound 2001, 4-(4-(4-hydroxypiperidin-4-yl)phenyl)-1H-pyrrolo[2,3-b]pyridine-3-carbonitrile], the results for the IC50 in experiment [1] (biochemical kinase inhibition), in experiment [2] (biochemical kinase inhibition) and in experiment [3] (biochemical kinase inhibition) were 3.3 nM, 3.3 nM and 278 nM, respectively.

Turning to `CN[C@@H](CO)C(=O)N1C[C@@H](C)[C@](O)(c2c(C)cc(-c3ccnc4[nH]cc(C#N)c34)cc2F)[C@@H](C)C1` [Compound 2009, 4-(3-fluoro-4-((3S,4R,5R)-4-hydroxy-3,5-dimethyl-1-(methyl-L-seryl)piperidin-4-yl)-5-methylphenyl)-1H-pyrrolo[2,3-b]pyridine-3-carbonitrile], the results for the IC50 in experiment [1] (biochemical kinase inhibition), in experiment [2] (biochemical kinase inhibition) and in experiment [3] (biochemical kinase inhibition) were 4.8 nM, 2.5 nM and 244 nM, respectively.

As for `Cc1cc(-c2ccnc3[nH]cc(C#N)c23)ccc1[C@@]1(O)[C@H](C)CN(C(=O)[C@@H](C)N)C[C@@H]1C` [Compound 2010, 4-(4-((3S,4S,5R)-1-(D-alanyl)-4-hydroxy-3,5-dimethylpiperidin-4-yl)-3-methylphenyl)-1H-pyrrolo[2,3-b]pyridine-3-carbonitrile], the IC50 in experiment [1] (biochemical kinase inhibition) came out at 13.4 nM; in experiment [2] (biochemical kinase inhibition), 8.5 nM; in experiment [3] (biochemical kinase inhibition), 89.4 nM.

With `Cc1cc(-c2ccnc3[nH]cc(C#N)c23)cc(F)c1[C@@]1(O)[C@H](C)CN(C(=O)[C@@H]2CCCN2)C[C@@H]1C` [Compound 2013, 4-(4-((3S,4S,5R)-1-(L-prolyl)-4-hydroxy-3,5-dimethylpiperidin-4-yl)-3-fluoro-5-methylphenyl)-1H-pyrrolo[2,3-b]pyridine-3-carbonitrile], the IC50 in experiment [1] (biochemical kinase inhibition) was determined as 5.7 nM; in experiment [2] (biochemical kinase inhibition) it was 2.9 nM; in experiment [3] (biochemical kinase inhibition) it was 330 nM.

With `Cc1cc(-c2ccnc3[nH]cc(C#N)c23)ccc1[C@@]1(O)[C@H](C)CN(C(=O)[C@H](N)CO)C[C@@H]1C` [Compound 2016, 4-(4-((3S,4S,5R)-1-(D-seryl)-4-hydroxy-3,5-dimethylpiperidin-4-yl)-3-methylphenyl)-1H-pyrrolo[2,3-b]pyridine-3-carbonitrile], the figures for the IC50 in experiment [1] (biochemical kinase inhibition), in experiment [2] (biochemical kinase inhibition) and in experiment [3] (biochemical kinase inhibition) were 9.2 nM, 6.4 nM and 48.8 nM, respectively.

On to `Cc1cc(-c2ccnc3[nH]cc(C#N)c23)cc(F)c1[C@@]1(O)[C@H](C)CN(C(=O)C(C)(C)N)C[C@@H]1C` [Compound 2018, 4-(4-((3S,4s,5R)-1-(2-amino-2-methylpropanoyl)-4-hydroxy-3,5-dimethylpiperidin-4-yl)-3-fluoro-5-methylphenyl)-1H-pyrrolo[2,3-b]pyridine-3-carbonitrile], for which the IC50 in experiment [1] (biochemical kinase inhibition) worked out at 11.1 nM; in experiment [2] (biochemical kinase inhibition) it was 7.2 nM; in experiment [3] (biochemical kinase inhibition), 610 nM.

Turning to `Cc1cc(-c2ccnc3[nH]cc(C#N)c23)cc(F)c1[C@@]1(O)[C@H](C)CN(C(=O)C(N)C(F)F)C[C@@H]1C` (stereo partly drawn) [Compound 2019, 4-(4-((3S,4s,5R)-1-(2-amino-3,3-difluoropropanoyl)-4-hydroxy-3,5-dimethylpiperidin-4-yl)-3-fluoro-5-methylphenyl)-1H-pyrrolo[2,3-b]pyridine-3-carbonitrile], the figures for the IC50 in experiment [1] (biochemical kinase inhibition), in experiment [2] (biochemical kinase inhibition) and in experiment [3] (biochemical kinase inhibition) were 7 nM, 7 nM and 1220 nM, respectively.

With `Cc1cc(-c2ccnc3[nH]cc(C#N)c23)cc(F)c1[C@@]1(O)[C@H](C)CN(C(=O)[C@@H](CO)N(C)C)C[C@@H]1C` [Compound 2021, 4-(4-((3S,4S,5R)-1-(dimethyl-D-seryl)-4-hydroxy-3,5-dimethylpiperidin-4-yl)-3-fluoro-5-methylphenyl)-1H-pyrrolo[2,3-b]pyridine-3-carbonitrile], the IC50 is 5.1 nM in experiment [1] (biochemical kinase inhibition), 3.4 nM in experiment [2] (biochemical kinase inhibition) and 223 nM in experiment [3] (biochemical kinase inhibition).

As to `Cc1cc(-c2ccnc3[nH]cc(C#N)c23)ccc1[C@@]1(O)[C@H](C)CN(C(=O)[C@@H](CO)N(C)C)C[C@@H]1C` [Compound 2022, 4-(4-((3S,4S,5R)-1-(dimethyl-D-seryl)-4-hydroxy-3,5-dimethylpiperidin-4-yl)-3-methylphenyl)-1H-pyrrolo[2,3-b]pyridine-3-carbonitrile], the IC50 stood at 5.3 nM in experiment [1] (biochemical kinase inhibition), 3 nM in experiment [2] (biochemical kinase inhibition) and 251 nM in experiment [3] (biochemical kinase inhibition).
